# Source: US6340708B1, “Pharmaceutical composition comprising at least one aminopeptidase A inhibitor” (Institut National de la Sante et de la Recherche Medicale …, priority 1998, dated 2002)
# Entries after “also recorded” stand apart in the source; their conditions may differ.
# What was measured:
# [1] = tested on: arterial pressure of WKY normotensive and SHR hypertensive rats; assay: Mean arterial pressure in anaesthetized WKY and SHR rats after i.c.v. injection; assay type: in vivo, rat; conditions: for antagonist effect on PC18-induced increase in arterial pressure: Losartan 10 μg pretreatment, PC18 60 μg; for maximum hypotensive effect (change in arterial pressure): 100 μg i.c.v.
# Excerpt: The rats used are male Sprague-Dawley rats weighing 200 to 250 grams; some of them are 11-week-old rats (SHR). Wistar Kyoto normotensive rats are also used as controls. The animals are kept for one week with alternating 12-hour periods of light and half-light, and have water and food available ad libitum. For each experiment, the SHR and WKY rats are weighed, and their arterial pressure and cardiac rhythm are continuously recorded via an invasive route after inserting a catheter (PE 50) into the femoral artery. The catheter is linked to a pressure sensor (COBE) and connected to a signal processor which is linked to an amplifier. The computer system comprises a MacLab interface system and application software (Chart and Scope) which allows data acquisition and calculation through a Macintosh computer.
# These experiments are carried out in Wistar Kyoto (WKY) normotensive rats or spontaneously hypertensive rats (SHR 12 weeks old).
# The animals are anaesthetized with Inactin (5-ethyl-2-(1′-methylpropyl)-2-thiobarbita), this being an anaesthetic which is used regularly in renal or cardiovascular physiology experiments. Its properties are to cause a very slight drop in arterial pressure, which is visible only in SHR rats, and especially to allow a stable basal arterial pressure to be maintained throughout the experiment.
# The mean arterial pressure (systolic+diastolic) is measured continuously, via an invasive route, after catheterizing the femoral artery. The peptides or the inhibitors, are injected via the intracerebroventricular (i.c.v.) route with the aid of a cannula positioned in the lateral ventricle under stereotaxy (Stereotaxic Atlas; G. Paxinos and C. Watson, Academic Press, 1986).
# The experiments are carried out on groups of 4 to 20 individually analysed animals. The results on batches of control animals and treated animals were compared with the aid of an analysis of variance (ANOVA), followed by an unpaired Student's test.
# An injection of angiotensin II is carried out combined, where appropriate, with a consecutive injection of EC33.
# In accordance with the protocol described in Example 3, AngIII (10 ng) in the presence of 60 μg of PC18 is injected into SHR rats. As a control test, an injection of PC18 alone is carried out.
# [2] = tested on: formation of angiotensin III from [3H]AngII in hypothalamus; assay: In vivo metabolism of tritiated AngII/AngIII in murine hypothalamus after i.c.v. injection; parameters: species or system mouse; conditions: mice
# Procedure: Male Swiss mice (available from the IFFA Credo Institute) weighing 18 to 20 grams are maintained under artificial light (12 hours in bright phase - 12 hours in half-light) and have food and water available ad libitum. The experiments are carried out between 9 o'clock and 11 o'clock in the morning. The drugs are administered into the lateral ventricle by the intracerebroventricular route (i.c.v) at an amount of 5 μl per mouse according to the method of Haley and McCormick (Br. J. Pharmacol. 12, 12-15).
# For each experiment, six to eight mice are used for each of the conditions. A mixture of 2×10^6 cpm of [^3H]Ang II and 30 μg of unlabelled Ang II is administered in a 5 μl volume, alone or together with EC33 (30 μg). The inhibitors are dissolved in an isotonic saline solution adjusted to a pH of 7.4 with 0.01 M NaOH solution. At various times after the injection, the mice are decapitated, their brains are removed and their hypothalami are dissected on ice and homogenized by sonication (ultrasons, Anemasse, France) in 10 volumes of a 0.1 M HCl solution cooled in ice. […]
# The respective amounts of labelled angiotensins II and III present in the hypothalamus are determined according to the protocol of Ledwith et al. (Anal. Biochem. 213, 349-355). […] The F1 and F2 fractions are then analysed by HPLC to determine their respective content of tritiated angiotensin II and tritiated angiotensin III.
# With the aim of an HPLC analysis, the F1 and F2 fractions are initially concentrated by extraction on a C18 Sep-pak® Cartridges device (Waters). […] After elution on Sep-pak®, the respective F1 and F2 fractions are freeze-dried, dissolved in 0.2 ml of a 0.01 M acetic acid solution, with 20 ng of angiotensin II and of angiotensin III as internal standard, and analysed by HPLC.
# The HPLC analysis is carried out using an H Hypersil ODS®-3 μm reverse phase column (Shandon, Pittsburgh) heated to 45° C., then with an isocratic elution at a flow rate of 0.6 ml per minute. […] Their radioactivity content is estimated with a beta counter. […]
# [3] = tested on: arterial pressure of conscious SHR rats; assay: Arterial pressure in conscious SHR rats after i.c.v. or i.v. injection; assay type: in vivo, rat
# Procedure: These experiments are carried out in a 12-week-old SHR rats (300-350 g). During the operation, the animals are anaesthetized for a limited time (3 hours) with sodium pentobarbital (50 mg/kg intraperitoneal, Laboratoire Sentravet, Plancoët, France) The experiments are carried out a minimum of 24 hours after the operation.
# The injections are carried out with the aid of a cannula positioned in the lateral ventricle under stereotaxy, and the arterial pressure is measured continuously, via an invasive route, after catheterizing the femoral artery. The catheter is exteriorized at the level of the animal's neck, and is linked to a fixing system which allows the rat to move around freely in its cage.
# A first catheter is positioned in the femoral vein in order to carry out the injections, a second catheter is introduced into the femoral artery in order to be able to measure arterial pressure continuously. Both catheters are then exteriorized as indicated above.
# [4] = tested on: aminopeptidase A (APA); assay: Measurement of APA activity in vitro (GluβNa hydrolysis, purified APA); conditions: APN versus APA
# Excerpt: In vitro, in the presence of calcium ions, APA hydrolyses α-L-glutamyl-β-naphthylamide (gluβNa) to glutamate and β-naphthylamine (βNa). A diazotation reaction in acid medium makes it possible to reveal the β-naphthylamine by formation of a violet-coloured complex: spectrophotometric measurement then makes it possible to know the amount of complex formed and, by reference to a standard curve produced with increasing concentrations of β-naphthylamine, to deduce therefrom the enzymatic activity of the sample.
# The GluβNa substrate and the β-naphthylamine (Bachem) are dissolved in DMSO (dimethyl sulphoxide) and 0.1 N HCl respectively, and conserved at −20° C. at a concentration of 10^−2 M. The diazotation reaction is carried out in the presence of sodium nitrite (87 mM), ammonium sulphamate (130 mM) and N-(1-naphthyl)-ethylenediamine dihydrochloride (23 mM).
# The reaction takes place at pH 7.4 in 50 mM tris-HCl buffer, in the presence of calcium (4 mM CaCl2); the sample to be assayed is incubated at 37° C. in the presence of substrate (200 μM GluβNa) and in the presence or absence of various concentrations of the inhibitor to be tested, in a final volume of 100 μl. The reaction is stopped by adding 10 μl of 3N HCl. A standard curve of β-naphthylamine in acid medium (add 10 μl of 0.1 N HCl) is produced in parallel.
# The following are added to each well: […]
compound,measurement,setting,value
CCCCc1nc(Cl)c(CO)n1Cc1ccc(-c2ccccc2-c2nn[nH]n2)cc1 [Losartan],antagonist effect on PC18-induced increase in arterial pressure,[1]; hypertensive rats,about 52%
same,antagonist effect on PC18-induced increase in arterial pressure,[1]; normotensive rats,about 85%
"N[C@H](CS)CCS(=O)(=O)[O-].[Na+] [EC33, sodium (S)-3-amino-4-mercaptobutylsulphonate]",formation of tritiated AngIII in hypothalamus,[2]; EC33 30 μg i.c.v.,immediately blocked; also recorded: totally blocks
same,half-life of [3H]AngII in hypothalamus,[2]; EC33 30 μg i.c.v. with [3H]AngII and 30 μg AngII,5.38 ± 0.21 min
same,"[3H]AngII content in hypothalamus, times the content of the control test","[2]; EC33 30 μg i.c.v., between 0.5 and 7 minutes",approximately 11
same,effect on the AngII-induced increase in arterial pressure,[1]; AngII 10 ng with EC33 100 μg i.c.v.,completely eliminated
same,modification of the effect on pressure of AngIII,[1]; AngIII 30 ng with EC33 i.c.v.,ineffectiveness
same,maximum hypotensive effect (change in arterial pressure),[1]; hypertensive (SHR) anaesthetized rats,−28 mmHg
same,maximum hypotensive effect (change in arterial pressure),[1]; normotensive (WKY) anaesthetized rats,−22 mmHg
same,decrease in arterial pressure,[3]; 100 μg i.c.v.,−26 mmHg
same,duration of hypotensive effect,[3]; 100 μg i.c.v.,40 min
same,hypotensive effect,[3]; 45 mg/kg i.v.,does not induce a significant hypotensive effect
"angiotensin II (DRVYIHPF; Angiotensin-2; UniProt P01019 25-32, looked up) [ANGII, angiotensin II peptide available from Amersham or Sigma]",maximum magnitude of increase in arterial pressure,"[1]; AngII 10 ng i.c.v., WKY and SHR rats",approximately 10 mmHg
"CSCC[C@H](N)CS [PC18, methioninethiol]",effect on the pressure effect of AngIII,"[1]; AngIII 10 ng with PC18 60 μg i.c.v., SHR rats",potentiation
same,increase in arterial pressure,"[1]; PC18 60 μg i.c.v., normotensive rats",+10 mmHg
same,duration of pressure effect,"[1]; PC18 alone 60 μg i.c.v., SHR rats",approximately 12 minutes
same,times less active on APA than on APN,[4],1000
